Assay results as given in patent publication EP0630897A2, “3-Hydroxy-4-hydroxymethyl-2-methylene-cyclopentyl purines and pyrimidines” (BRISTOL-MYERS SQUIBB COMPANY, priority 1993, dated 1994).

How the values were obtained:
Type in all cases: cell-based
[1] = system: HSV-1 (herpes simplex virus type 1, strain Schooler); assay: Plaque reduction antiviral assay in WI-38 cell culture, HSV-1; conditions: Human alphaherpesvirus 1, 96 h; WI-38 monolayers, at least 50% plaque reduction, 4 days incubation at 37°C; read-out: ID50(μM) for the following viruses HSV-1
Experimental: (§1) Assays were performed in cell culture systems to determine the concentrations of compounds that are effective in preventing several kinds of viral infections. HSV-1 (herpes simplex virus type 1, strain Schooler), HSV-2 (herpes simplex virus type 2, strain 186), VZV (varicella zoster virus, strain ELLEN), HCMV (human cytomegalovirus, strain AD 169). HSV-1, HSV-2, HCMV and VZV antiviral assays: Virus was adsorbed to WI-38 cell culture monolayers in 6 well culture plates (Costar, Cambridge, MA) for 1 hour prior to addition of maintenance medium containing duplicate dilutions of the test compound. Inhibition of plaque development was evaluated on fixed and stained monolayers after 4 days incubation at 37°C. for HSV-1 and HSV-2, and after 5 - 7 days incubation at 37°C. for HCMV and VZV. ID₅₀ values were determined from the drug concentration which conferred at least a 50% plaque reduction compared to virus controls.

[2] = system: HSV-2 (herpes simplex virus type 2, strain 186); assay: Plaque reduction antiviral assay in WI-38 cell culture, HSV-2; conditions: Human alphaherpesvirus 2, 96 h; WI-38 monolayers, at least 50% plaque reduction, 4 days incubation at 37°C; read-out: ID50(μM) for the following viruses HSV-2
Experimental: as §1

[3] = system: VZV (varicella zoster virus, strain ELLEN); assay: Plaque reduction antiviral assay in WI-38 cell culture, VZV; conditions: Human alphaherpesvirus 3; WI-38 monolayers, at least 50% plaque reduction, 5 - 7 days incubation at 37°C; read-out: ID50(μM) for the following viruses VZV
Experimental: as §1

[4] = system: HCMV (human cytomegalovirus, strain AD 169); assay: Plaque reduction antiviral assay in WI-38 cell culture, HCMV; conditions: Human betaherpesvirus 5; WI-38 monolayers, at least 50% plaque reduction, 5 - 7 days incubation at 37°C; read-out: ID50(μM) for the following viruses HCMV
Experimental: as §1

[5] = Visible toxicity to the cell monolayers under the antiviral assay conditions; conditions: human, wi-38 cells; concentration at which toxicity was visible
Experimental: HSV-1, HSV-2, HCMV and VZV antiviral assays: Virus was adsorbed to WI-38 cell culture monolayers in 6 well culture plates (Costar, Cambridge, MA) for 1 hour prior to addition of maintenance medium containing duplicate dilutions of the test compound. Inhibition of plaque development was evaluated on fixed and stained monolayers after 4 days incubation at 37°C. for HSV-1 and HSV-2, and after 5 - 7 days incubation at 37°C. for HCMV and VZV. ID₅₀ values were determined from the drug concentration which conferred at least a 50% plaque reduction compared to virus controls.

Compound | IC50 [1] [µM] | IC50 [2] [µM] | IC50 [3] [µM] | IC50 [4] [µM] | MCC [5] [µM]
C=C1C(O)C(CO)CC1n1cnc2c(=O)[nH]c(N)nc21 (stereo not drawn) [Example 1, (1α,3β,4α)-2-Amino-1,9-dihydro-9-[3-hydroxy-4-(hydroxymethyl)-2-methylenecyclopentyl]-6H-purin-6-one] | 4 to 7 | 7 to 18 | 7 to 18 | 7 | 361
C=C1C(O)C(CO)CC1n1cnc2c(N)ncnc21 (stereo not drawn) [Example 2, (1α,2β,4α)-4-(6-Amino-9H-purin-9-yl)-2-hydroxy-3-methylenecyclopentanemethanol] | 383 | 383 | > 38 | > 38 | 383
C=C1C(O)C(CO)CC1n1cc(C)c(=O)[nH]c1=O (stereo not drawn) [Example 3, (1α,3β,4α)-1-[3-Hydroxy-4-(hydroxymethyl)-2-methylenecyclopentyl]-5-methyl-2,4(1H,3H)-pyrimidinedione] | 100 to 200 | > 396 | 40 | > 396 | 396
C=C1C(O)C(CO)CC1n1cc(I)c(=O)[nH]c1=O (stereo not drawn) [Example 4, (1α,3β,4α)-1-[3-Hydroxy-4-(hydroxymethyl)-2-methylenecyclopentyl]-5-iodo-2,4(1H,3H)-pyrimidinedione] | > 275 | > 275 | 275 | 28 to 275 | 275
C=C1C(O)C(CO)CC1n1cc(C=CBr)c(=O)[nH]c1=O (stereo not drawn) [Example 5, [1α(E),3β,4α]-5-[2-Bromoethenyl)-1-[3-hydroxy-4-(hydroxymethyl)-2-methylenecyclopentyl]-2,4-(1H,3H)-pyrimidinedione] | 291 | > 291 | 1.5 to 3 | – | 291
